Earlier results in patent US10709686B2, “Methods for treating pulmonary fibrosis” (David Weinstein Consulting, Inc., priority 2018, dated 2020).

Key:
[1] = target: T1, FKBP52 (Homo sapiens, UniProt Q02790); details: treatment of fibroblasts for 2 hours
T1 construct: endogenous in cells
T1 sequence (Q02790 1-459): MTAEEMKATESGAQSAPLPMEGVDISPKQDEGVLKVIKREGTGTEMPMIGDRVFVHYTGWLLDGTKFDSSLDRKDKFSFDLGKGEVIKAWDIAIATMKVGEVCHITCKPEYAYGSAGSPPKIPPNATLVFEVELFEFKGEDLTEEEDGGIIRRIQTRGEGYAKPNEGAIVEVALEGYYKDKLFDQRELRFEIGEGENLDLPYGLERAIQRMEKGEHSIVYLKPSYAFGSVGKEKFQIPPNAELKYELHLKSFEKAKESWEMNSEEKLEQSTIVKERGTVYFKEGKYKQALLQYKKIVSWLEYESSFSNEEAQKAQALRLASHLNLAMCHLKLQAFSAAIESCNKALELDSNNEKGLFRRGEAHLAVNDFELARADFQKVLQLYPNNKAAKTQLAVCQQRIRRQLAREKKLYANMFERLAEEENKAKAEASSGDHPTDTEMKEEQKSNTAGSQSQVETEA

[2] = target: T2, FK506 binding protein 4 (FKBP52) (Homo sapiens, UniProt Q02790)
T2 sequence (Q02790 1-459): T1 sequence (Q02790 1-459)

Binding affinity to FKBP52 [2]: binds with high affinity
Compound: CCC(C)(C)C(=O)C(=O)N1CCC[C@H]1C(=O)O [RT175]
Translocation of FKBP52 to the nucleus [1]: results in the translocation of FKBP52 to the nucleus
